Measurements: patent US8598157B2, “5-alkynyl-pyridines” (Boehringer Ingelheim International GmbH, priority 2011, dated 2013)
pEC50, pIC50: −log10 of the molar value.

Columns and labels:
MCF7 cells = test: alamarBlue MCF7 cell assay (antiproliferative/cytotoxicity); assay type: cell-based; conditions: MCF7 human breast cancer cell line
From the text: (§1) The H460, MB453, U87, MCF7 and BT474 alamarBlue cell assays provide EC50 values indicative of the antiproliferative or cytotoxic effects of the compounds to respectively the H460 (human non small cell line cancer), MB-453 (breast cancer cell line), U87 (glioblastoma cell line), MCF7 (breast cancer cell line) and BT474 (breast cancer cell line). As known in the field, antiproliferative or cytotoxic effect against this cell lines would be expected to be indicative of activity in treating lung, breast and brain cancers. See R. Marone R et al. Biochim. Biophys. Acta. 2008 January; 1784(1):159-85. S. Yaguchi et al., J. Natl. Cancer Inst. 2006 Apr. 19; 98(8):545-56.
(§2) Method Type: Antiproliferative/Cytotoxicity
(§3) alamarBlue® is designed to provide a rapid and sensitive measure of cell proliferation and cytotoxicity in various human and animal cell lines. The assay is based on the reduction of alamarBlue in the reducing environment of living (metabolically active) cells. In the presence of added cytotoxic or antiproliferative compounds, the innate metabolic activity ceases.
(§4) AlamarBlue is soluble and stable in culture medium. Measurements are made fluorometrically by exciting at 530-560 nm and measuring emission at 590 nm. In reporting percent alamarBlue reduction by monitoring fluorescence, data are expressed as fluorescence emission intensity units as a function of time of incubation.
(§5) 3. Equipment • 96-well plates, flat bottom (Falcon, Cat. No.: 353072) • 96-well plates, U-shaped (Costar, Cat. No.: 3799) • CO2-Incubator • Microplate Reader, Spectramax Plus, Molecular Devices 4. Typical Procedure • Day 0: Seed 3000 BT-474 cells (IMDM/5% FCS, 1% NEAA, 1% Sodiumpyruvat) in 150 μl medium into a 96-well plate, flat bottom (include mediumblank). Incubate plates at 37° C. in a CO2 incubator overnight. • Day 1: Dilute compounds to a concentration 40 μM->1:3 in medium, 10 dilution steps, in 96-well plates. • Add 50 μl per well of each dilution (total volume per well 200 μl; final conc. of cpds: 10 μM->1:3). If required, test further dilutions. • All concentrations are tested in duplicates. • Controls: Cells w/o cpd. (+50 μl medium/DMSO). • Cells are incubated with compounds for 5-6 days. • Day 6 or 7: Add 25 μl of alamarBlue solution to each well and incubate for 8 hours at 37° C. Measure fluorescence by exciting at 530-560 nm and measuring emission at 590 nm. 5. Evaluation • Subtract average value for medium blank from sample readings • Calculate EC50 using GraphPad Prism (Fifty)

PI3Kalpha = PI3Kalpha (Homo sapiens (Human), UniProt P42336); test: Inhibition of PI3Kalpha-induced PIP-2 phosphorylation (filter-binding assay); assay type: biochemical; conditions: 33P-ATP, p85alpha/His-p110alpha, read-out: IC50 PI3Kα
Chain of PI3Kalpha (P42336 whole entry): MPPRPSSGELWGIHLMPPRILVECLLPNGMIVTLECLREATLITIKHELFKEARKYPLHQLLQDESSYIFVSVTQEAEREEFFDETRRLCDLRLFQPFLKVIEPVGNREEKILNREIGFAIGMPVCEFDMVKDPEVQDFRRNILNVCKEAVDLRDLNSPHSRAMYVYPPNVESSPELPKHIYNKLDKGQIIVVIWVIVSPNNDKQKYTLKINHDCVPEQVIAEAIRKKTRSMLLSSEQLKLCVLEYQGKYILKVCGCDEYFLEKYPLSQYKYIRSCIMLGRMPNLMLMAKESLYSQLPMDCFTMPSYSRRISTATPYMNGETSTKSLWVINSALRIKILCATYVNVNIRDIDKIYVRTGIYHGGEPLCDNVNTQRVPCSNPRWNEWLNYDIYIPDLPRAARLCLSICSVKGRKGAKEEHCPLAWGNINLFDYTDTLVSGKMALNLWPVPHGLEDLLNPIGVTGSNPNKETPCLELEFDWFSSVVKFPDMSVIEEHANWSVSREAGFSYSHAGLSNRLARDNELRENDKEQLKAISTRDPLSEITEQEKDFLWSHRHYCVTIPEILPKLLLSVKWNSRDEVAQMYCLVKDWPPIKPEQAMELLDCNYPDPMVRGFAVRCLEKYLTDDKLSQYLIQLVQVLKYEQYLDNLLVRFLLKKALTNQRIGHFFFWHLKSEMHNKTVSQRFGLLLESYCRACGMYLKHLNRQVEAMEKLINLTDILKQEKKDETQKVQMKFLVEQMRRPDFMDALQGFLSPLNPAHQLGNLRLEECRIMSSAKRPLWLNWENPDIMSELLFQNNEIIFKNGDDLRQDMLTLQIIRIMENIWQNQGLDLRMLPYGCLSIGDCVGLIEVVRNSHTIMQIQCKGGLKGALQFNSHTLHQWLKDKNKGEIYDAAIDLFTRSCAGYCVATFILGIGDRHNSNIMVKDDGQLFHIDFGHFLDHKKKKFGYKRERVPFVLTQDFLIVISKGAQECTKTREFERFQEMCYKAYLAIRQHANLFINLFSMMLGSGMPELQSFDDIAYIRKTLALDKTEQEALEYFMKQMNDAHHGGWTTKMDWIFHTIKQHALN
From the text: Inhibition of PI3Kalpha-Induced PIP-2 Phosphorylation
This PI3Kalpha assay provides an IC50 value indicative of the activity of the compounds to inhibit PI3 kinase alpha activity. Inhibition of PI3 kinase would be expected to be indicative of activity in treating conditions of excessive or anomalous cell proliferation, such as cancers. See also J. A. Engelman, Nature Reviews Cancer, 2009, 9, 550-562; A. Carnero, Expert Opin. Investig. Drugs, 2009, 18, 1265-1277 and P. Liu et al., Nature Reviews Drug Discovery, 2009, 8, 627-64.
Method Type: Filter-Binding-Assay
Aliquoted in desired amounts and stored at −80° C. Final assay concentration 25 ng/well • Phosphotyrosin PDGFRbeta-peptide H-CGG-pY-[…]-pY-VPMLDM-NH2 was synthesized by Jerini Peptide Technologies (JPT) and used in a final conc. of 1.7 μM (stock 100 μM prepared in Assay buffer with DTT, aliquoted in desired amounts and stored at −80° C.) • Cold ATP (from Sigma; A-7699), 100 μM stock solution in H2O, use 1 μM final concentration in assay • [33P]-ATP, 370 MBq/ml from Amersham (#AH9968), use 0.5 μCi/well (10 mCi/ml) • Clear 96-well plates from Greiner (#655 162) • Filter plates: Perkin Elmer UniFilter GF/B #6005177 • Microscint 0 (from Perkin Elmer, #6013611) 2. Assay Procedure
The substrate-containing lipid vesicles are dissolved to a concentration of 0.637 mg lipid blend/ml assay buffer (with BSA, freshly added) in 50 ml Falcon->keep on ice, followed by ultrasonication (pulse of 15 sec followed by a pause of 10 sec, 4×). Compounds are serially diluted in assay buffer+6% DMSO and […] of each dilution is added per well of a 96-well plate (compounds are tested in duplicates) and mixed with 30 μl of the lipid vesicles containing PDGFR-Peptide ([…]) and PI3K alpha (25 ng/well final). The mixture is then incubated for 20 minutes at room temperature. Subsequently, 20 μl of assay buffer containing […] cold ATP and 0.5 μCi/20 μl 33P-ATP are added. The plates are then incubated at room temperature for 120 minutes (shaking with 300 rpm).
The reaction mix is transferred onto filter plates using “filtermate harvester” from Packard: filter plates are rinsed with PBS, then the reaction mix is filtered onto the filter plate, washed 5 times with PBS and are allowed to dry for 30-60 minutes at 50° C.
The plate bottom is sealed with Perkin Elmer white adhesive foil and 25 μl/well Microscint( ) are added, the top is covered with transparent adhesive foil and the plate is measured with Wallac Trilux 1450 Microbeta Counter.
As positive control serve wells containing vehicle controls (1% DMSO in assay buffer), showing non-inhibited kinase activity (high values). Wells containing assay buffer instead of enzyme can serve as control for background activity (low values).
Calculate IC50 values using the Smiley program (based on GrapPad Prism)

BT474 cells = test: alamarBlue BT474 cell assay (antiproliferative/cytotoxicity); assay type: cell-based; conditions: BT-474 human breast cancer cell line
From the text: as §1, §2, §3, §4, §5

MB453 cells = test: alamarBlue MB453 cell assay (antiproliferative/cytotoxicity); assay type: cell-based; conditions: Homo sapiens; MDA MB 453 breast cancer cell line
From the text: as §1, §2, §3, §4, §5

U87 cells = test: U87 cell assay (antiproliferative/cytotoxicity); assay type: cell-based; conditions: U-87MG human glioblastoma cells
From the text: as §1, §2, §3, §4, §5

H460 cells = test: alamarBlue H460 cell assay (antiproliferative/cytotoxicity); assay type: cell-based; conditions: NCI-H460; H460 human lung carcinoma cells
From the text: as §1, §2, §3, §4, §5

Row | pIC50 (PI3Kalpha) | Structure (SMILES) | pEC50 (MCF7 cells) | pEC50 (BT474 cells) | pEC50 (MB453 cells) | pEC50 (U87 cells) | pEC50 (H460 cells)
1 | 9.40 | COc1ncc(C#Cc2c(C)ncnc2N2CCOCC2)cc1NS(=O)(=O)c1ccccc1 [Example I-1, N-[2-Methoxy-5-(4-methyl-6-morpholin-4-yl-pyrimidin-5-ylethynyl)-pyridin-3-yl]-benzenesulfonamide] | 8.40 | 7.85 | 7.33 | 7.26 | 7.72
2 | 8.40 | Cc1ncnc(N2CCOCC2)c1C#Cc1cncc(NS(C)(=O)=O)c1 [Example I-24, N-[5-(4-Methyl-6-morpholin-4-yl-pyrimidin-5-ylethynyl)-pyridin-3-yl]-methanesulfonamide] | 5.96 | 5.63 | – | – | –
3 | 8.70 | CCc1nc(N)nc(N2CCC(OC)CC2)c1C#Cc1cnc(C)c(NS(C)(=O)=O)c1 [Example I-34, N-{5-[2-Amino-4-ethyl-6-(4-methoxy-piperidin-1-yl)-pyrimidin-5-ylethynyl]-2-methyl-pyridin-3-yl}-methanesulfonamide] | 7.13 | 6.36 | – | – | –
4 | 8.40 | CCc1ncnc(N2CCC(OC)CC2)c1C#Cc1cnc(C)c(NS(C)(=O)=O)c1 [Example I-45, N-{5-[4-Ethyl-6-(4-methoxy-piperidin-1-yl)-pyrimidin-5-ylethynyl]-2-methyl-pyridin-3-yl}-methanesulfonamide] | 7.21 | 6.55 | – | – | 6.85
5 | – | CCc1ncnc(N2CCC(O)CC2)c1C#Cc1cnc(C)c(NS(C)(=O)=O)c1 [Example I-46, N-{5-[4-Ethyl-6-(4-hydroxy-piperidin-1-yl)-pyrimidin-5-ylethynyl]-2-methyl-pyridin-3-yl}-methanesulfonamide] | 6.40 | 5.90 | – | – | 6.06
6 | – | Cc1ncc(C#Cc2c(C)ncnc2N2CCOCC2)cc1NS(=O)(=O)c1cnn(C)c1 [Example I-51, 1-Methyl-1H-pyrazole-4-sulfonic acid [2-methyl-5-(4-methyl-6-morpholin-4-yl-pyrimidin-5-ylethynyl)-pyridin-3-yl]-amide] | 7.92 | 6.51 | 6.70 | 6.50 | 6.71
7 | 9.19 | COc1ncc(C#Cc2c(C)ncnc2N2CCOCC2)cc1NS(C)(=O)=O [Example I-81, N-[2-methoxy-5-(4-methyl-6-morpholin-4-yl-pyrimidin-5-ylethynyl)-pyridin-3-yl]-methylsulfonamide] | – | 7.12 | 6.63 | 6.29 | 6.74
8 | 9.30 | COc1ncc(C#Cc2c(C)ncnc2N2CCOCC2)cc1NS(=O)(=O)c1ccccc1OC(F)(F)F [Example I-82, 2-Trifluoromethoxy-N-[2-methoxy-5-(4-methyl-6-morpholin-4-yl-pyrimidin-5-ylethynyl)-pyridin-3-yl]-benzenesulfonamide] | – | 7.60 | 7.57 | 7.30 | 7.62
9 | 9.36 | COc1ncc(C#Cc2c(C)ncnc2N2CCOCC2)cc1NS(=O)(=O)c1ccccc1C(F)(F)F [Example I-83, 2-Trifluoromethyl-N-[2-methoxy-5-(4-methyl-6-morpholin-4-yl-pyrimidin-5-ylethynyl)-pyridin-3-yl]-benzenesulfonamide] | – | 8.22 | 8.15 | 7.74 | 8.22
10 | 9.52 | COc1ncc(C#Cc2c(C)ncnc2N2CCOCC2)cc1NS(=O)(=O)c1ccc(Cl)cc1 [Example I-84, 4-Chloro-N-[2-methoxy-5-(4-methyl-6-morpholin-4-yl-pyrimidin-5-ylethynyl)-pyridin-3-yl]-benzenesulfonamide] | – | 7.32 | 7.31 | 7.62 | 7.39
11 | 9.42 | COc1ncc(C#Cc2c(C)ncnc2N2CCOCC2)cc1NS(=O)(=O)c1ccc(Cl)s1 [Example I-85, 5-Chloro-N-[2-methoxy-5-(4-methyl-6-morpholin-4-yl-pyrimidin-5-ylethynyl)-pyridin-3-yl]-thiophene-2-sulfonamide] | – | 7.47 | 7.40 | 7.19 | 7.33
12 | 9.41 | COc1ncc(C#Cc2c(C)ncnc2N2CCOCC2)cc1NS(=O)(=O)c1cccs1 [Example I-86, N-[2-Methoxy-5-(4-methyl-6-morpholin-4-yl-pyrimidin-5-ylethynyl)-pyridin-3-yl]-thiophene-2-sulfonamide] | – | 7.92 | 7.85 | 7.38 | 8.00
13 | 9.35 | COc1ncc(C#Cc2c(C)ncnc2N2CCOCC2)cc1NS(=O)(=O)c1ccnn1C [Example I-87, N-[2-methoxy-5-[2-(4-methyl-6-morpholin-4-ylpyrimidin-5-yl)ethynyl]pyridin-3-yl]-2-methylpyrazole-3-sulfonamide] | – | 7.70 | 7.82 | 7.27 | 7.52
14 | 9.26 | COc1ncc(C#Cc2c(C)ncnc2N2CCOCC2)cc1NS(=O)(=O)c1cnn(C)c1 [Example I-88, N-[2-methoxy-5-[2-(4-methyl-6-morpholin-4-ylpyrimidin-5-yl)ethynyl]pyridin-3-yl]-1-methylpyrazole-4-sulfonamide] | – | 7.21 | 8.10 | 7.57 | 7.68
15 | 9.28 | COc1ncc(C#Cc2c(C)ncnc2N2CCOCC2)cc1NS(=O)(=O)c1ccc(C)o1 [Example I-89, N-[2-methoxy-5-[2-(4-methyl-6-morpholin-4-ylpyrimidin-5-yl)ethynyl]pyridin-3-yl]-5-methylfuran-2-sulfonamide] | – | 7.20 | 7.42 | 7.38 | 7.59
